Where two headings read alike, the source gives them in different places.
Assays:
CWR22RV1 cells [1] = assay: Combination with CDK4/6 inhibitor palbociclib, proliferation of CWR22RV1 prostate cancer cells; type: cell-based; conditions: for IC50: read-out: IC50 against CWR22RV1 cells
Description: (§1) Prior to use, the stock solution was diluted in a ratio of 1:3 with DMSO and then further diluted in a ratio of 1:3 to obtain 9 gradient concentrations. Each concentration of compound was diluted in a ratio of 1:200 with culture medium (to ensure the concentration of DMSO in the culture system was 0.1%). Two wells were set for each concentration. 20 μL of diluted compound solution was added to the cell culture well (with a final concentration of 10 μM, 3.3 μM, 1.1 μM, etc.); the stock solution of palbociclib was diluted with the culture medium as 500 nM, 150 nM, 50 nM, 5 nM, respectively, and then 20 μL of diluted palbociclib solution was added to the cell culture well ([…]). The plate was gently shaken to mix well. In addition, three negative control wells containing only cells and three blank control wells containing only culture medium (6 wells being each added with DMSO diluted in a ratio of 1:200 using 20 μL of culture medium) were included. 2. Test Results: • (1) After the plate was cultured for 6 days, 10 μL of CCK-8 was added to each well, and then the plate was continually cultured in a 5% CO2 incubator at 37° C. for 2.5 h. • (2) The absorbance (OD value) was measured at 450 nm with a microplate reader. • (3) Data were analyzed using the Dose-response-inhibition equation in the software GraphPad Prisms 6 to obtain IC50 values. 3. Experimental Results

MCF-7 cells = assay: Combination with CDK4/6 inhibitor palbociclib, proliferation of MCF-7 breast cancer cells; type: cell-based; conditions: for IC50: Homo sapiens, read-out: IC50 against MCF-7 cells
Description: as §1
Using the same method as in Example 4, CWR22RV1 cells were replaced with MCF-7 cells, and for the inhibitory activities against the proliferation of MCF-7 cells, the IC50 values (nM) of the compounds according to the present invention, palbociclib, and the combination of the compound according to the present invention and palbociclib were tested and calculated.

MCF-7 = assay: Proliferation of MCF-7 breast cancer cells (CCK-8); type: cell-based; conditions: breast cancer cell line MCF-7, read-out: IC50 against MCF-7
Description: (§2) • (1) CWR22RV1 prostate cancer cells were subcultured in cell culture medium, and well-grown cells were inoculated into 96-well plates with 80 μL per well and 1500 cells per well, and then the plate was cultured overnight at 37° C. in a 5% CO2 incubator. • (2) Drug was prepared as 30 mM of stock solution with dimethylsulfoxide (DMSO). Prior to use, the stock solution was diluted in a ratio of 1:3 with DMSO and then further diluted in a ratio of 1:3 to obtain 9 gradient concentrations. Each concentration of compound was diluted in a ratio of 1:200 with culture medium (to ensure the concentration of DMSO in the culture system was 0.1%). Two wells were set for each concentration. 20 μL of diluted compound solution was added to the cell culture well (with a final concentration of 10 μM, 3.3 μM, 1.1 μM, etc.), and then the plate was gently shaken to mix well. In addition, three negative control wells containing only cells and three blank control wells containing only culture medium (6 wells being each added with DMSO diluted in a ratio of 1:200 using 20 μL of culture medium) were included. 2. Test Results: • (1) After the plate was cultured for 6 days, 10 μL of CCK-8 was added to each well, and then the plate was continually cultured in a 5% CO2 incubator at 37° C. for 2.5 h. • (2) The absorbance (OD value) was measured at 450 nm with a microplate reader. • (3) Data were analyzed using the Dose-response-inhibition equation in the software GraphPad Prisms 6 to obtain IC50 values. 3. Experimental Results
(§3) Using the same method as in Example 2, CWR22RV1 cells were replaced with tumor cells in Table 3, and for the inhibitory activities against these tumor cells, the IC50 values (nM) of the compounds according to the present invention were tested and calculated.

CWR22RV1 cells [2] = assay: Proliferation of prostate cancer CWR22RV1 cells (CCK-8, 6 days); type: cell-based
Description: as §2

VCAP = assay: Proliferation of VCAP prostate cancer cells (CCK-8); type: cell-based; conditions: prostate cancer cell line VCAP, read-out: IC50 against VCAP
Description: as §2, §3

OPM-2 = assay: Proliferation of OPM-2 multiple myeloma cells (CCK-8); type: cell-based; conditions: multiple myeloma cell line OPM-2, read-out: IC50 against OPM-2
Description: as §2, §3

MOLM-16 = assay: Proliferation of MOLM-16 leukemia cells (CCK-8); type: cell-based; conditions: leukemia cell line MOLM-16, read-out: IC50 against MOLM-16
Description: as §2, §3

LNCAP-AR = assay: Proliferation of LNCAP-AR prostate cancer cells (CCK-8); type: cell-based; conditions: prostate cancer cell line LNCAP-AR; read-out: IC50 against LNCAP-AR
Description: as §2, §3

LNCAP = assay: Proliferation of LNCAP prostate cancer cells (CCK-8); type: cell-based; conditions: prostate cancer cell line LNCAP, read-out: IC50 against LNCAP
Description: as §2, §3

EP300 BRD = EP300 BRD (Homo sapiens (Human), UniProt Q09472); assay: EP300 AlphaScreen bromodomain (BRD) binding test
Description: (§4) CBP and EP300AlphaScreen Test:
(§5) • 1. Prepare 1× concentration of test buffer • 2. Preparation of compound
(§6) The compound was firstly diluted in a ratio of 1:1000 relative to the final concentration using a Precision automatic sampler (by 3× gradient dilution method): • 1) 50 μL of compound solution with a storage concentration of 10 mM was transferred to A2 well of a 96-well plate using an Echo automatic sampler. • 2) 30 μL of DMSO was transferred to well A1, and wells A3 to A12 with Precision™. • 3) 15 μL solution was transferred from A2 to A3 by Precision, and this operation was sequentially repeated until 15 μL solution was transferred from well A10 to well A11. Thus, a 1:3 gradient dilution was completed. • 4) The compound plate was centrifuged at a speed of 1000 r/min for one minute. • 3. Preparation of test plate
(§7) 20 nL of solution was transferred from each concentration well of the compound plate to the test plate using an Echo automatic sampler: from well A1 of the preparation plate to wells A1 and A2 of the test plate, and from well A2 of the preparation plate to wells A3 and A4 of the test plate. • 4. Binding test of bromodomain (BRD) • 1) Preparation of 2-fold solution of protein and polypeptide
(§8) The protein and polypeptide were dissolved in a 1× concentration of detection buffer. • 2) 10 μL of protein and polypeptide solution was transferred to each well in columns 3 to 24 in the test plate, and 10 μL of 1× test buffer was transferred to wells in columns 1 to 2 in the test plate as negative control. • 3) The test plate was centrifuged at a speed of 1000 r/min for one minute. • 4) The test plate was incubated at room temperature for 15 min. • 5) A 2-fold receptor and donor solution was prepared by dissolving acceptor and donor beads with one-fold test buffer. • 6) 2-fold receptor and donor solutions were transferred to the test plate.
(§9) 15 μL of acceptor and donor solution was added and light was avoided. • 7) The test plate was centrifuged at a speed of 1000 r/min for one minute and then incubated at room temperature for 60 min. • 5. The Endpoints were Read in EnSpire and Alpha Modes. • 6. Curve fitting
(§10) The experimental data was entered into an Excel document and the inhibition rate Inh % was calculated using equation (1): Inh %=(Max−Signal)/(Max−Min)×100 Equation (1): wherein, Max: control containing DMSO, Min: low control containing DMSO,
(§11) The obtained data were entered into the XL-Fit software, and the IC50 value was calculated using equation (2): Y=Bottom+(Top−Bottom)/(1+10^((Log IC50−X)×Hill Slope)) Equation (2): II. Experimental Results

CBP BRD = CBP BRD (Homo sapiens (Human), UniProt Q92793); assay: CBP AlphaScreen bromodomain (BRD) binding test
Description: as §4, §5, §6, §7, §8, §9, §10, §11

[3] = CWR22Rv1, 144 h, 6 days, CCK-8, class symbols, read-out: IC50 against CWR22RV1 cells
[4] = compound 172 + palbociclib, in words

Chain of CBP BRD (Q92793 1085-1192): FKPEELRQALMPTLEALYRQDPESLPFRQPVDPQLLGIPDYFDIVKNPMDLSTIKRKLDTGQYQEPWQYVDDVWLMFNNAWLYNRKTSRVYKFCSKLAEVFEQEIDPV
Chain of EP300 BRD (Q09472 1049-1156): as the sequence (Q92793 1085-1192) above, with N47S, V73I, F93Y, A98S counted along it

CC(=O)c1c(C)c2cnc(Nc3ccc(N4CCNCC4)cn3)nc2n(C2CCCC2)c1=O [palbociclib, reference compound]
IC50 (CWR22RV1 cells [1]; CWR22Rv1, administrated alone): 0.1 µM | IC50 (MCF-7 cells; MCF7, administrated alone): 12.8 µM

(S)-4-(3,4-difluorophenyl)-5-(5-(3,5-dimethylisoxazol-4-yl)-1-((trans)-4-deuteromethoxycyclohexyl)-1H-benzo[d]imidazol-2-yl)morphine-3-one [Compound 113]
IC50 (MCF-7): < 0.5 µM | IC50 (CWR22RV1 cells [2]; 6 days, CCK-8, bound stated, read-out: IC50 against CWR22RV1 prostate cancer cells): < 0.5 µM | IC50 (CWR22RV1 cells [2]; 6 days, CCK-8, class symbols, read-out: IC50 against CWR22RV1 cells): < 0.5 µM | IC50 (VCAP): < 0.5 µM | IC50 (OPM-2): < 0.5 µM | IC50 (MOLM-16): < 0.5 µM | IC50 (LNCAP-AR): < 0.5 µM | IC50 (LNCAP): < 0.5 µM

CO[C@H]1C[C@@H](n2c([C@@H]3CCOC(=O)N3c3ccc(F)c(F)c3)nc3cc(-c4c(C)noc4C)ccc32)C1 [Compound 143]
IC50 (EP300 BRD): 0.0027 µM | IC50 (CWR22RV1 cells [2]; [3]): 0.5 to 2 µM | IC50 (CBP BRD): 0.0047 µM

CO[C@H]1CC[C@H](n2c([C@H]3COCC(=O)N3c3ccc(F)c(F)c3)nc3cc(-c4c(C)noc4C)ccc32)CC1 [Compound 112, (S)-4-(3,4-difluorophenyl)-5-(5-(3,5-dimethylisoxazol-4-yl)-1-((trans)-4-methoxycyclohexyl)-1H-benzo[d]imidazol-2-yl)morphine-3-one]
IC50 (EP300 BRD): 0.0017 µM | IC50 (CWR22RV1 cells [2]; CWR22Rv1, 144 h, read-out: IC50 against CWR22RV1 cells): < 0.5 µM | IC50 (CWR22RV1 cells [2]; CWR22Rv1, 144 h, read-out: IC50 against CWR22RV1 prostate cancer cells): < 0.5 µM | IC50 (CBP BRD): 0.002 µM

CO[C@H]1CC[C@H](n2c([C@@H]3CCOC(=O)N3c3ccc(Cl)c(F)c3)nc3cc(-c4c(C)noc4C)ccc32)CC1 [Compound 117, (S)-3-(3-fluoro-4-chlorophenyl)-4-(5-(3,5-dimethylisoxazol-4-yl)-1-((trans)-4-methoxycyclohexyl)-1H-benzo[d]imidazol-2-yl)-1,3-oxazinane-2-one]
IC50 (MCF-7; Homo sapiens, MCF7): < 0.5 µM | IC50 (EP300 BRD): 0.00073 µM | IC50 (CWR22RV1 cells [2]; CWR22Rv1, 144 h, 6 days, CCK-8, bound stated, read-out: IC50 against CWR22RV1 prostate cancer cells): < 0.5 µM | IC50 (CWR22RV1 cells [2]; [3]): < 0.5 µM | IC50 (VCAP; Homo sapiens): < 0.5 µM | IC50 (CBP BRD): 0.00071 µM | IC50 (OPM-2; Homo sapiens): < 0.5 µM | IC50 (MOLM-16; MOLM16): < 0.5 µM | IC50 (LNCAP-AR): < 0.5 µM | IC50 (LNCAP; Homo sapiens): < 0.5 µM

COc1cccc(-c2nc3cc(-c4c(C)noc4C)ccc3n2[C@H]2CC[C@H](OC)CC2)c1-c1ccc(F)cc1 [Compound 141]
IC50 (EP300 BRD): 0.0096 µM | IC50 (CWR22RV1 cells [2]; [3]): > 2 µM | IC50 (CBP BRD): 0.022 µM

CCO[C@H]1CC[C@H](n2c([C@@H]3CCOC(=O)N3c3ccc(Cl)c(F)c3)nc3cc(-c4c(C)noc4C)ccc32)CC1 [Compound 172, (S)-3-(4-chloro-3-fluorophenyl)-4-(5-(3,5-dimethylisoxazol-4-yl)-1-((trans)-4-ethoxycyclohexyl)-1H-benzo[d]imidazol-2-yl)-1,3-oxazinane-2-one]
IC50 (MCF-7; Homo sapiens, MCF7): < 0.5 µM | IC50 (EP300 BRD): 0.0021 µM | IC50 (CWR22RV1 cells [2]; [3]): 0.5 to 2 µM | IC50 (VCAP; Homo sapiens): < 0.5 µM | IC50 (CWR22RV1 cells [1]; CWR22Rv1, 172 in combination with 10 nM palbociclib): 0.026 µM | IC50 (CWR22RV1 cells [1]; CWR22Rv1, 172 in combination with 100 nM palbociclib): < 0.001 µM | IC50 (CWR22RV1 cells [1]; CWR22Rv1, 172 in combination with 100-300 nM of palbociclib): < 0.001 µM | IC50 (CWR22RV1 cells [1]; CWR22Rv1, administrated alone): 1.5 µM | effect of combination with palbociclib on CWR22RV1 prostate cancer cells (CWR22RV1 cells [1]; [4]): synergistic inhibitory effect | IC50 (CBP BRD): 0.0023 µM | IC50 (MCF-7 cells; MCF7, 172 in combination with 10 nM palbociclib): 0.027 µM | IC50 (MCF-7 cells; MCF7, 172 in combination with 100 nM palbociclib): 0.009 µM | IC50 (MCF-7 cells; MCF7, 172 in combination with 300 nM palbociclib): 0.007 µM | IC50 (MCF-7 cells; MCF7, 172 in combination with 100-300 nM of palbociclib): < 0.01 µM | IC50 (MCF-7 cells; MCF7, administrated alone): 0.072 µM | effect of combination with palbociclib on MCF-7 breast cancer cells (MCF-7 cells; [4]): synergistic inhibitory effect | IC50 (OPM-2; Homo sapiens): < 0.5 µM | IC50 (MOLM-16; MOLM16): < 0.5 µM | IC50 (LNCAP-AR): < 0.5 µM | IC50 (LNCAP; Homo sapiens): < 0.5 µM

CO[C@H]1CC[C@H](n2c([C@@H]3CCOCC(=O)N3c3ccc(F)c(F)c3)nc3cc(-c4c(C)noc4C)ccc32)CC1 [Compound 106]
IC50 (EP300 BRD): 0.0022 µM | IC50 (CWR22RV1 cells [2]; [3]): 0.5 to 2 µM | IC50 (CBP BRD): 0.0048 µM

CCO[C@H]1CC[C@H](n2c([C@@H]3CCOC(=O)N3c3ccc(F)c(F)c3)nc3cc(-c4c(C)noc4C)ccc32)CC1 [Compound 171, (S)-3-(3,4-difluorophenyl)-4-(5-(3,5-dimethylisoxazol-4-yl)-1-((trans)-4-ethoxycyclohexyl)-1H-benzo[d]imidazol-2-yl)-1,3-oxazinane-2-one]
IC50 (MCF-7; Homo sapiens, MCF7): < 0.5 µM | IC50 (EP300 BRD): 0.0024 µM | IC50 (CWR22RV1 cells [2]; [3]): 0.5 to 2 µM | IC50 (VCAP; Homo sapiens): < 0.5 µM | IC50 (CBP BRD): 0.0018 µM | IC50 (OPM-2; Homo sapiens): < 0.5 µM | IC50 (MOLM-16; MOLM16): < 0.5 µM | IC50 (LNCAP-AR): < 0.5 µM | IC50 (LNCAP; Homo sapiens): < 0.5 µM

From patent publication US12497392B2, “EP300/CBP inhibitor” (HINOVA PHARMACEUTICALS INC., priority 2019, dated 2025)
